Among the data in ChEMBL document CHEMBL4177538, “Recent progress in prodrug design strategies based on generally applicable modifications” (Bioorg Med Chem Lett, 2017) are half-life values, retold here.

The nature of data set [1]: Half life in phosphate buffered saline at pH 7.4 at 37 degC. The class given is physicochemical.
For a further data set, the system named is glucuronidase. In words: Half life in phosphate buffered saline at pH 7 in presence of glucuronidase at 37 degC. The class given is ADME.

In data set [1], `Cc1cccc(C)c1OCC(=O)N[C@@H](Cc1ccccc1)[C@H](OC(=O)CCC(=O)NCCN1CCCCC1)C(=O)N1CSC(C)(C)[C@H]1C(=O)NC(C)(C)C` yielded a half-life of 12 min.
In the case of `CC[C@@]1(O)C(=O)OCc2c1cc1n(c2=O)Cc2cc3cc(OCc4ccc(O[C@@H]5O[C@H](C(=O)O)[C@@H](O)[C@H](O)[C@H]5O)c([N+](=O)[O-])c4)ccc3nc2-1`, in the data set on glucuronidase, the half-life amounted to 20 min.

What is called half-life is the time needed for the level to fall by half in the phase considered.
